# In PubChem BioAssay (NCI):
#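 1) Cells in 96-well plates. 2) Compound, 48 h, 5 concentrations. 3) Linear interpolation between surrounding doses. 4) Unreached endpoint = highest concentration. GI50 = concentration required for 50% inhibition of growth. The concentration for full growth arrest is given as TGI.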
# Assays:
# Assay in all cases: inhibition of tumour cell growth, NCI panel, 48 h
# [1] = test system: MDA-MB-468 breast
# [2] = test system: 786-0 renal
# [3] = test system: A498 renal
# [4] = test system: A549 NSCLC
# [5] = test system: ACHN renal
# [6] = test system: BT-549 breast
# [7] = test system: CAKI-1 renal
# [8] = test system: CCRF-CEM leukemia
# [9] = test system: COLO 205 colon
# [10] = test system: DU-145 prostate
# [11] = test system: EKVX NSCLC
# [12] = test system: HCC-2998 colon
# [13] = test system: HCT-116 colon
# [14] = test system: HCT-15 colon
# [15] = test system: HL-60(TB) leukemia
# [16] = test system: HOP-62 NSCLC
# [17] = test system: HOP-92 NSCLC
# [18] = test system: HS 578T breast
# [19] = test system: HT29 colon
# [20] = test system: IGROV1 ovarian
# [21] = test system: K-562 leukemia
# [22] = test system: KM12 colon
# [23] = test system: LOX IMVI melanoma
# [24] = test system: M14 melanoma
# [25] = test system: MALME-3M melanoma
# [26] = test system: MCF7 breast
# [27] = test system: MDA-MB-231 breast
# [28] = test system: MDA-MB-435
# [29] = test system: MOLT-4 leukemia
# [30] = test system: NCI-H226 lung
# [31] = test system: NCI-H23 lung
# [32] = test system: NCI-H460 lung
# [33] = test system: NCI-H522 lung
# [34] = test system: NCI/ADR-RES ovarian
# [35] = test system: OVCAR-3 ovarian
# [36] = test system: OVCAR-4 ovarian
# [37] = test system: OVCAR-5 ovarian
# [38] = test system: OVCAR-8 ovarian
# [39] = test system: PC-3 prostate
# [40] = test system: RPMI-8226 leukemia
# [41] = test system: SF-268 CNS
# [42] = test system: SF-295 CNS
# [43] = test system: SF-539 CNS
# [44] = test system: SK-MEL-2 melanoma
# [45] = test system: SK-MEL-28 melanoma
# [46] = test system: SK-MEL-5 melanoma
# [47] = test system: SK-OV-3 ovarian
# [48] = test system: SN12C renal
# [49] = test system: SNB-19 CNS
# [50] = test system: SNB-75 CNS
# [51] = test system: SR leukemia
# [52] = test system: SW-620 colon
# [53] = test system: T-47D breast
# [54] = test system: TK-10 renal
# [55] = test system: U251 CNS
# [56] = test system: UACC-257 melanoma
# [57] = test system: UACC-62 melanoma
# [58] = test system: UO-31 renal
compound,measurement,setting,value
CN(C)Cc1ccc(NC(=O)c2cncc(C#Cc3cnc(N)c4ncccc34)c2)cc1C(F)(F)F,GI50,[1],1.56 µM
same,TGI,[1],3.21 µM
COCCOCCOCCOc1ccc(-n2cc(CCCN(CCNc3ccnc4cc(Cl)ccc34)C(=O)CCC(=O)O[C@@H]3O[C@@H]4OC5(C)CC[C@H]6[C@H](C)CC[C@@H]([C@H]3C)[C@@]46OO5)nn2)cc1,GI50,[2],5.54 µM
same,TGI,[2],> 10.3 µM
same,GI50,[3],> 10.3 µM
same,TGI,[3],> 10.3 µM
same,GI50,[4],6.09 µM
same,TGI,[4],> 10.3 µM
same,GI50,[5],3.97 µM
same,TGI,[5],> 10.3 µM
same,GI50,[6],0.771 µM
same,TGI,[6],6.85 µM
same,GI50,[7],> 10.3 µM
same,TGI,[7],> 10.3 µM
same,GI50,[8],1.07 µM
same,TGI,[8],> 10.3 µM
same,GI50,[9],1.12 µM
same,TGI,[9],> 10.3 µM
same,GI50,[10],> 10.3 µM
same,TGI,[10],> 10.3 µM
same,GI50,[11],1.67 µM
same,TGI,[11],> 10.3 µM
same,GI50,[12],7.16 µM
same,TGI,[12],> 10.3 µM
same,GI50,[13],0.434 µM
same,TGI,[13],> 10.3 µM
same,GI50,[14],0.388 µM
same,TGI,[14],> 10.3 µM
same,GI50,[15],0.353 µM
same,TGI,[15],2.37 µM
same,GI50,[16],> 10.3 µM
same,TGI,[16],> 10.3 µM
same,GI50,[17],1.09 µM
same,TGI,[17],8.11 µM
same,GI50,[18],2.54 µM
same,TGI,[18],> 10.3 µM
same,GI50,[19],1.23 µM
same,TGI,[19],> 10.3 µM
same,GI50,[20],4.54 µM
same,TGI,[20],> 10.3 µM
same,GI50,[21],0.434 µM
same,TGI,[21],> 10.3 µM
same,GI50,[22],0.792 µM
same,TGI,[22],> 10.3 µM
same,GI50,[23],0.731 µM
same,TGI,[23],> 10.3 µM
same,GI50,[24],3.19 µM
same,TGI,[24],> 10.3 µM
same,GI50,[25],1.73 µM
same,TGI,[25],4.2 µM
same,GI50,[26],1.04 µM
same,TGI,[26],> 10.3 µM
same,GI50,[27],> 10.3 µM
same,TGI,[27],> 10.3 µM
same,GI50,[28],1.25 µM
same,TGI,[28],> 10.3 µM
same,GI50,[1],1.01 µM
same,TGI,[1],> 10.3 µM
same,GI50,[29],0.408 µM
same,TGI,[29],> 10.3 µM
same,GI50,[30],3.18 µM
same,TGI,[30],> 10.3 µM
same,GI50,[31],1.77 µM
same,TGI,[31],> 10.3 µM
same,GI50,[32],10.1 µM
same,TGI,[32],> 10.3 µM
same,GI50,[33],0.754 µM
same,TGI,[33],> 10.3 µM
same,GI50,[34],2.45 µM
same,TGI,[34],> 10.3 µM
same,GI50,[35],0.883 µM
same,TGI,[35],> 10.3 µM
same,GI50,[36],2 µM
same,TGI,[36],> 10.3 µM
same,GI50,[37],1.7 µM
same,TGI,[37],> 10.3 µM
same,GI50,[38],1.83 µM
same,TGI,[38],> 10.3 µM
same,GI50,[39],0.301 µM
same,TGI,[39],> 10.3 µM
same,GI50,[40],0.386 µM
same,TGI,[40],> 10.3 µM
same,GI50,[41],7.69 µM
same,TGI,[41],> 10.3 µM
same,GI50,[42],3.63 µM
same,TGI,[42],> 10.3 µM
same,GI50,[43],4.97 µM
same,TGI,[43],> 10.3 µM
same,GI50,[44],5.76 µM
same,TGI,[44],> 10.3 µM
same,GI50,[45],4.01 µM
same,TGI,[45],> 10.3 µM
same,GI50,[46],1.18 µM
same,TGI,[46],8.81 µM
same,GI50,[47],> 10.3 µM
same,TGI,[47],> 10.3 µM
same,GI50,[48],4.77 µM
same,TGI,[48],> 10.3 µM
same,GI50,[49],> 10.3 µM
same,TGI,[49],> 10.3 µM
same,GI50,[50],> 10.3 µM
same,TGI,[50],> 10.3 µM
same,GI50,[51],0.375 µM
same,TGI,[51],3.34 µM
same,GI50,[52],0.654 µM
same,TGI,[52],> 10.3 µM
same,GI50,[53],0.42 µM
same,TGI,[53],> 10.3 µM
same,GI50,[54],> 10.3 µM
same,TGI,[54],> 10.3 µM
same,GI50,[55],4.31 µM
same,TGI,[55],> 10.3 µM
same,GI50,[56],1.86 µM
same,TGI,[56],> 10.3 µM
same,GI50,[57],1.18 µM
same,TGI,[57],> 10.3 µM
same,GI50,[58],1.37 µM
same,TGI,[58],> 10.3 µM
